Reference: patent US8877748B2, “Heterocyclic fused anthraquinone derivatives, manufacturing method and pharmaceutical composition using thereof” (National Defense Medical Center, priority 2012, dated 2014)
Where “and” joins values, the source holds several entries; their conditions need not be identical. Equal entries are not always repeated.

Legend:
[1] = test system: PC-3 prostate cancer cell line; experiment: SRB assay cell viability, PC-3 prostate cancer cell line; format: cell-based, human; conditions: Homo sapiens, PC-3 prostate cancer cell line, Table II prints no unit, μM printed, read-out: SRB assay: 50% inhibition of cancer cell proliferation of sample concentration (IC50) of PC-3 prostate cancer cell line
[2] = test system: NCI-H460; experiment: NCI one-dose screening, non-small cell lung cancer NCI-H460; format: cell-based, human; conditions: 10 μM
[3] = test system: HCT-15; experiment: NCI one-dose screening, colon cancer HCT-15; format: cell-based, human; conditions: 10 μM
[4] = test system: HS 578-T; experiment: NCI one-dose screening, breast cancer HS 578-T; format: cell-based, human; conditions: 10 μM; Breast cancer
[5] = test system: IGROV1; experiment: NCI one-dose screening, ovarian cancer IGROV1; format: cell-based, human; conditions: 10 μM
[6] = test system: SR; experiment: NCI one-dose screening, leukemia SR; format: cell-based, human; conditions: 10 μM
[7] = test system: SN12C; experiment: NCI one-dose screening, renal cancer SN12C; format: cell-based, human; conditions: 10 μM
[8] = test system: human tumor cell lines; experiment: NCI one-dose screening, Mean / Delta / Range of growth percent over all tested cell lines; format: cell-based; conditions: 10 μM
[9] = test system: UO-31; experiment: NCI one-dose screening, renal cancer UO-31; format: cell-based, human; conditions: 10 μM
[10] = test system: TK-10; experiment: NCI one-dose screening, renal cancer TK-10; format: cell-based, human; conditions: 10 μM
[11] = test system: HOP-62; experiment: NCI one-dose screening, non-small cell lung cancer HOP-62; format: cell-based, human; conditions: 10 μM
[12] = test system: MCF7; experiment: NCI one-dose screening, breast cancer MCF7; format: cell-based, human; conditions: 10 μM
[13] = test system: NCl/ADR-RES; experiment: NCI one-dose screening, breast cancer NCl/ADR-RES; format: cell-based, human; conditions: 10 μM; listed under Ovarian cancer
[14] = test system: M14; experiment: NCI one-dose screening, melanoma M14; format: cell-based, human; conditions: 10 μM
[15] = test system: KM12; experiment: NCI one-dose screening, colon cancer KM12; format: cell-based, human; conditions: 10 μM
[16] = NCI one-dose screening, renal cancer A489; format: cell-based, human; conditions: 10 μM
[17] = test system: SNB-75; experiment: NCI one-dose screening, CNS cancer SNB-75; format: cell-based, human; conditions: 10 μM
[18] = test system: BT-549; experiment: NCI one-dose screening, breast cancer BT-549; format: cell-based, human; conditions: 10 μM
[19] = test system: OVCAR-4; experiment: NCI one-dose screening, ovarian cancer OVCAR-4; format: cell-based, human; conditions: 10 μM
[20] = test system: SK-OV-3; experiment: NCI one-dose screening, ovarian cancer SK-OV-3; format: cell-based, human; conditions: 10 μM
[21] = test system: HL-60, TB; experiment: NCI one-dose screening, leukemia HL-60, TB; format: cell-based, human; conditions: 10 μM
[22] = test system: NCI-H322M; experiment: NCI one-dose screening, non-small cell lung cancer NCI-H322M; format: cell-based, human; conditions: 10 μM; Non-small cell lung cancer
[23] = test system: PRMI-8226 cell line; experiment: NCI one-dose screening, leukemia PRMI-8226; format: cell-based, human; conditions: 10 μM
[24] = test system: SF-295; experiment: NCI one-dose screening, CNS cancer SF-295; format: cell-based, human; conditions: 10 μM
[25] = test system: HCT-116; experiment: NCI one-dose screening, colon cancer HCT-116; format: cell-based, human; conditions: 10 μM
[26] = test system: MDA-MB-231/ATCC; experiment: NCI one-dose screening, breast cancer MDA-MB-231/ATCC; format: cell-based, human; conditions: 10 μM
[27] = test system: OVCAR-3; experiment: NCI one-dose screening, ovarian cancer OVCAR-3; format: cell-based, human; conditions: 10 μM
[28] = test system: UACC-257; experiment: NCI one-dose screening, melanoma UACC-257; format: cell-based, human; conditions: 10 μM
[29] = test system: SF-268; experiment: NCI one-dose screening, CNS cancer SF-268; format: cell-based, human; conditions: 10 μM
[30] = test system: CCRF-CEM; experiment: NCI screening platform one-dose single concentration screening, leukemia CCRF-CEM; format: cell-based, human; conditions: 10 μM
[31] = test system: DU145; experiment: NCI one-dose screening, prostate cancer DU145; format: cell-based, human; conditions: 10 μM
[32] = test system: NCI-H226; experiment: NCI one-dose screening, non-small cell lung cancer NCI-H226; format: cell-based, human; conditions: 10 μM
[33] = test system: UACC-62; experiment: NCI one-dose screening, melanoma UACC-62; format: cell-based, human; conditions: 10 μM
[34] = test system: NCI-H23; experiment: NCI one-dose screening, non-small cell lung cancer NCI-H23; format: cell-based, human; conditions: 10 μM
[35] = test system: LOX IMVI; experiment: NCI one-dose screening, melanoma LOX IMVI; format: cell-based, human; conditions: 10 μM
[36] = test system: K562cell line; experiment: NCI one-dose screening, leukemia K562; format: cell-based, human; conditions: 10 μM
[37] = test system: U251; experiment: NCI one-dose screening, CNS cancer U251; format: cell-based, human; conditions: 10 μM
[38] = test system: COLO 205; experiment: NCI one-dose screening, colon cancer COLO 205; format: cell-based, human; conditions: 10 μM
[39] = test system: SK-MEL-28; experiment: NCI one-dose screening, melanoma SK-MEL-28; format: cell-based, human; conditions: 10 μM
[40] = test system: RXF, 393; experiment: NCI one-dose screening, renal cancer RXF, 393; format: cell-based, human; conditions: 10 μM
[41] = test system: MALME-3M; experiment: NCI one-dose screening, melanoma MALME-3M; format: cell-based, human; conditions: 10 μM
[42] = test system: 786-O; experiment: NCI one-dose screening, renal cancer 786-O; format: cell-based, human; conditions: 10 μM
[43] = test system: HOP-92; experiment: NCI one-dose screening, non-small cell lung cancer HOP-92; format: cell-based, human; conditions: 10 μM
[44] = test system: MOLT-4; experiment: NCI one-dose screening, leukemia MOLT-4; format: cell-based, human; conditions: 10 μM
[45] = test system: OVCAR-8; experiment: NCI one-dose screening, ovarian cancer OVCAR-8; format: cell-based, human; conditions: 10 μM
[46] = test system: MDA, -MB-435; experiment: NCI one-dose screening, breast cancer MDA, -MB-435; format: cell-based, human; conditions: 10 μM; listed under Melanoma
[47] = test system: SNB-19; experiment: NCI one-dose screening, CNS cancer SNB-19; format: cell-based, human; conditions: 10 μM
[48] = test system: NCI-H522; experiment: NCI one-dose screening, non-small cell lung cancer NCI-H522; format: cell-based, human; conditions: 10 μM
[49] = test system: SF-539; experiment: NCI one-dose screening, CNS cancer SF-539; format: cell-based, human; conditions: 10 μM
[50] = test system: MDA-MB-468; experiment: NCI one-dose screening, breast cancer MDA-MB-468; format: cell-based, human; conditions: 10 μM
[51] = test system: HCC-2998; experiment: NCI one-dose screening, colon cancer HCC-2998; format: cell-based, human; conditions: 10 μM
[52] = test system: PC-3; experiment: NCI one-dose screening, prostate cancer PC-3; format: cell-based, human; conditions: 10 μM
[53] = test system: T-47D; experiment: NCI one-dose screening, breast cancer T-47D; format: cell-based, human; conditions: 10 μM
[54] = test system: CAKI-1; experiment: NCI one-dose screening, renal cancer CAKI-1; format: cell-based, human; conditions: 10 μM
[55] = test system: SK-MEL-2; experiment: NCI one-dose screening, melanoma SK-MEL-2; format: cell-based, human; conditions: 10 μM
[56] = test system: A549/ATCC; experiment: NCI one-dose screening, non-small cell lung cancer A549/ATCC; format: cell-based, human; conditions: 10 μM

## CC(C)(C)c1ccc(CSc2cc3c(c4nsnc24)C(=O)c2ccccc2C3=O)cc1 [C57, 4-(4-tert-butylbenzylthio)anthra[2,1-c] [1,2,5]thiadiazol-6,11-dione]
[1]
  IC50: 7.47 µM
other
  melting point: 256 to 257 °C

## O=C1c2ccccc2C(=O)c2c1cc(S(=O)(=O)[O-])c1nsnc21.[Na+] [C3, Sodium 6,11-dioxo-6,11-dihydroanthra[2,1-c][1,2,5]thiadiazole-4-sulfonate]
[1]
  IC50: 13.3 µM
other
  melting point: 293 to 295 °C

## O=C1c2ccccc2C(=O)c2c1cc(Sc1ccc(Cl)cc1)c1nsnc21 [C22, 4-(4-chloro-phenylthio)anthra[2,1-c] [1,2,5]thiadiazol-6,11-dione]
[2]
  Growth Percent NCI-H460: 99.52%
[3]
  Growth Percent HCT-15: 98.10%
[4]
  Growth Percent HS 578T: 103.37%
[5]
  Growth Percent IGROV1: 84.93%
[1]
  IC50: > 15 µM
[6]
  Growth Percent SR: 110.89%
[7]
  Growth Percent SN12C: 86.95%
[8]; delta over all cell lines
  Growth Percent Delta: 51.95%
[8]; mean over all cell lines
  Growth Percent Mean: 98.08%
[8]; range over all cell lines
  Growth Percent Range: 93.67%
[9]
  Growth Percent UO-31: 79.46%
[10]
  Growth Percent TK-10: 139.80%
[11]
  Growth Percent HOP-62: 94.80%
[12]
  Growth Percent MCF7: 86.11%
[13]
  Growth Percent NCI/ADR-RES: 102.42%
[14]
  Growth Percent M14: 105.44%
[15]
  Growth Percent KM12: 101.50%
[16]
  Growth Percent A498: 93.03%
[17]
  Growth Percent SNB-75: 91.73%
[18]
  Growth Percent BT-549: 98.88%
[19]
  Growth Percent OVCAR-4: 76.82%
[20]
  Growth Percent SK-OV-3: 108.96%
[21]
  Growth Percent HL-60(TB): 87.34%
[22]
  Growth Percent NCI-H322M: 100.11%
[23]
  Growth Percent RPMI-8226: 90.15%
[24]
  Growth Percent SF-295: 97.26%
[25]
  Growth Percent HCT-116: 98.25%
[26]
  Growth Percent MDA-MB-231/ATCC: 89.05%
[27]
  Growth Percent OVCAR-3: 118.64%
[28]
  Growth Percent UACC-257: 95.45%
[29]
  Growth Percent SF-268: 104.55%
[30]
  Growth Percent CCRF-CEM: 79.34%
[31]
  Growth Percent DU145: 117.15%
[32]
  Growth Percent NCI-H226: 94.77% and 93.41%
[33]
  Growth Percent UACC-62: 90.65%
[34]
  Growth Percent NCI-H23: 104.26%
[35]
  Growth Percent LOX IMVI: 83.24%
[36]
  Growth Percent K562: 94.91%
[37]
  Growth Percent U251: 103.69%
[38]
  Growth Percent COLO 205: 121.41%
[39]
  Growth Percent SK-MEL-28: 130.48%
[40]
  Growth Percent RXF 393: 117.52%
[41]
  Growth Percent MALME-3M: 105.10%
[42]
  Growth Percent 786-0: 108.70%
[43]
  Growth Percent HOP-92: 101.98%
[44]
  Growth Percent MOLT-4: 59.21%
[45]
  Growth Percent OVCAR-8: 88.60%
[46]
  Growth Percent MDA-MB-435: 106.67%
[47]
  Growth Percent SNB-19: 105.18%
[48]
  Growth Percent NCI-H522: 102.62%
[49]
  Growth Percent SF-539: 107.00%
[50]
  Growth Percent MDA-MB-468: 46.13%
[51]
  Growth Percent HCC-2998: 106.82%
[52]
  Growth Percent PC-3: 86.94%
[53]
  Growth Percent T-47D: 85.04%
[54]
  Growth Percent CAKI-1: 86.97%
[55]
  Growth Percent SK-MEL-2: 109.49%
[56]
  Growth Percent A549/ATCC: 103.88%

## Cc1ccc(C)c(Sc2cc3c(c4nsnc24)C(=O)c2ccccc2C3=O)c1 [C20, 4-(2,5-dimethyl-phenyl-thio)anthra[2,1-c] [1,2,5]thiadiazol-6,11-dione]
[1]
  IC50: 7.44 µM
other
  melting point: 243 to 244 °C

## CCN(CC)c1cc2c(c3nsnc13)C(=O)c1ccccc1C2=O [C5, 4-(diethylamino)anthra[2,1-c][1,2,5] thiadiazol-6,11-dione]
[1]
  IC50: 1.1 µM
other
  melting point: 204 to 205 °C

## Cc1ccc(Oc2cc3c(c4nsnc24)C(=O)c2ccccc2C3=O)cc1
other
  melting point: 244 to 245 °C
